Data reported in patent publication US8404664B2, “Phosphonated Rifamycins and uses thereof for the prevention and treatment of bone and joint infections” (Targanta Therapeutics, Inc., priority 2005, dated 2013).
Converted amounts (≈) assume the structure as drawn.

Assays:
S. aureus ATCC 13709 [1] = assay: Antibacterial susceptibility (MIC) in the presence of serum; format: cell-based; conditions: for MIC: Staphylococcus aureus, ATCC13709, 18 h
S. aureus ATCC 13709 [2] = assay: Antibacterial susceptibility (MIC), NCCLS broth microdilution; format: cell-based
Outline: (§1)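 Two-fold serial dilutions in DMSO tested in cation-adjusted Mueller Hinton broth per NCCLS M26-A, 5×10^5 c.f.u./mL inoculum, 1.25% final DMSO, duplicates.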

[3] = tested on: S. aureus ATCC 43300 (Fluoroquinolone sensitive MRSA); assay: as above; format: cell-based
Outline: as §1

S. aureus RN4220 = assay: as above; format: cell-based; conditions: CAMHB, 37° C., 18 h
Outline: as §1

[4] = tested on: S. aureus BK85 (Fluoroquinolone resistant MRSA); assay: as above; format: cell-based
Outline: as §1

[5] = Regeneration of drug from bone powder-bound prodrug; format: in vitro ADME; conditions: for % Conversion of bone-bound prodrug to parent drug: 24 h incubation, 37° C.; for Impact of the medium on the rate of regeneration of parent drug (in words): serum compared to PBS
[6] = tested on: S. aureus (chronic bone infection); assay: Treatment of chronic osteomyelitis caused by S. aureus in rat model; format: in vivo; conditions: for Effect on bacterial titer in bone infection versus the untreated control (figure legends): regimen of the figure, 4 weeks post-infection
Text: To appraise the ability of bisphosphonated prodrugs of Rifamycin derivatives in treating chronic bone infections, a comparison was made between parent compounds 9, 56, 69, rifabutin and rifalazil (all of which are non-bisphosphonated rifamycin derivatives), and their corresponding bisphosphonated prodrugs, respectively 11, 62, 71, 36 and 81, when used to treat chronically (14- to 28-day) infected rats for 4 weeks of antimicrobial therapy.
In this experiment, rats were infected as described in Example 4 and treated with either 20 mg/kg of body weight of the specific rifamycin derived antibacterial agent subcutaneously, or a molar equivalent dose of its bisphosphonated prodrug intravenously according to the indicated schedule after instillation of bacteria. The standard controls involving no treatment and a subcutaneous treatment of 20 mg/kg of Rifampicin daily were also included. The rats were humanely sacrificed at the conclusion of the experiment and the bacterial titers in the infected tibiae were determined.
This experiment was performed with 20 mg/kg of body weight of rifamycin derivative 9 subcutaneously or with 32 mg/kg of its prodrug 11 (corresponding to 20 mg/kg of 9) intravenously on each of the 20th, 24th, 28th, 32nd, 36th, 40th and […] days (q4 days) after instillation of bacteria. Alternatively, 11 was administered by the same route and at the same dose on the 20th, 21st, 22nd, 23rd, 30th, 37th, 44th and 47th days (q24hx4+q7d) after the instillation of bacteria. The same controls (no treatment or daily subcutaneous 20 mg/kg dose of rifampicin) were used. The rats were humanely sacrificed on the 48th day after the initiation of infection and the bacterial titers in the infected tibiae were determined.
This experiment was also executed in which similarly infected rats were treated with either 20 mg/kg of body weight of rifabutin subcutaneously or with 33.4 mg/kg of its prodrug 36 (corresponding to 20 mg/kg of rifabutin) intravenously on each of the 28th, 32nd, 36th, 40th, 44th, 48th and 52nd days (q4 days) after instillation of bacteria. The same controls (no treatment or daily subcutaneous 20 mg/kg dose of rifampicin) were used. The rats were humanely sacrificed on the 55th day after the initiation of infection and the bacterial titers in the infected tibiae were determined.
This experiment was also executed in which similarly infected rats were treated with either 20 mg/kg of body weight of the rifamycin derived antibacterial agent 56 subcutaneously or with 26 mg/kg of its prodrug 62 (corresponding to 20 mg/kg of 56) intravenously on each of the 27th, 28th, 29th, 30th, 34th, 38th, 42nd, 46th and 50th days (q24hx4+q4 days) after instillation of bacteria. The same controls (no treatment or daily subcutaneous 20 mg/kg dose of rifampicin) were used. The rats were humanely sacrificed on the 51^St day after the initiation of infection and the bacterial titers in the infected tibiae were determined.
This experiment was also executed in which similarly infected rats were treated with either 20 mg/kg of body weight of the rifamycin derived antibacterial agent 69 subcutaneously or with 28 mg/kg of its prodrug 71 (corresponding to 20 mg/kg of 69) intravenously on each of the 18th, 19th, 20th, 21st, 25th, 29th, 33rd, 37th, 41st and 45th days (q24hx4+q4 days) after instillation of bacteria. The same controls (no treatment or daily subcutaneous 20 mg/kg dose of rifampicin) were used. The rats were humanely sacrificed on the 46th day after the initiation of infection and the bacterial titers in the infected tibiae were determined.

[7] = tested on: E. coli LBB925 (tolC mutant); assay: Antibacterial susceptibility (MIC), NCCLS broth microdilution; format: cell-based; conditions: for Minimum inhibitory concentration, E. coli LBB925: tolC mutant
[8] = FIG. 1: 9 20 mg/kg sc q4 days, 11 32 mg/kg iv q4d or q24hx4+q7d
[9] = prodrug iv at 20 mg/kg parent equivalent

3-(((4-(2-(3-((bisphosphonomethyl)carbamoyl)propanoyloxy)ethyl)-1-piperazinyl)imino)methyl)rifamycin [Compound 11]
Impact of serum on the MICs (in words) (S. aureus ATCC 13709 [1]): no impact
Minimum inhibitory concentration, S. aureus ATCC 13709 + 50% Human Serum (S. aureus ATCC 13709 [1]): 0.25 µg/mL
Minimum inhibitory concentration, S. aureus ATCC 13709 + 50% Mouse Serum (S. aureus ATCC 13709 [1]): 0.25 µg/mL
Minimum inhibitory concentration, S. aureus ATCC 13709 + 50% Rat Serum (S. aureus ATCC 13709 [1]): 0.25 µg/mL
Minimum inhibitory concentration, S. aureus ATCC 13709 (S. aureus ATCC 13709 [2]): 0.125 µg/mL
Minimum inhibitory concentration, S. aureus ATCC 43300 [3]: 0.25 µg/mL
Minimum inhibitory concentration, S. aureus RN4220 (S. aureus RN4220): 0.25 µg/mL
Minimum inhibitory concentration, S. aureus BK85 [4]: 0.25 µg/mL
Regeneration of parent drug once bound to bone (in words) [5]: appreciable rates of regeneration
% Conversion of bone-bound prodrug to parent drug ([5]; 50% Human Serum): 1.01%
% Conversion of bone-bound prodrug to parent drug ([5]; 50% Rat Serum): 1.01%
% Conversion of bone-bound prodrug to parent drug ([5]; PBS): 0.97%
Impact of the medium on the rate of regeneration of parent drug (in words) [5]: not significantly impacted
Effect on bacterial titer in bone (in words) [6, 8]: not statistically significant
Effect on bacterial titer in bone infection versus the untreated control (figure legends) [6, 9]: small but not statistically significant effect
Minimum inhibitory concentration, E. coli LBB925 [7]: 32 µg/mL

CO[C@H]1/C=C/O[C@@]2(C)Oc3c(C)c(O)c4c(O)c(c(/C=N/N5CCN(CCO)CC5)c(O)c4c3C2=O)NC(=O)/C(C)=C\C=C\[C@H](C)[C@H](O)[C@@H](C)[C@@H](O)[C@@H](C)[C@H](OC(C)=O)[C@@H]1C [Compound 9, 3-(((4-(2-hydroxyethyl)-1-piperazinyl)imino)methyl)rifamycin]
MIC (S. aureus ATCC 13709 [1]; read-out: Minimum inhibitory concentration, S. aureus ATCC 13709 + 50% Human Serum): 0.062 µg/mL
MIC (S. aureus ATCC 13709 [1]; read-out: Minimum inhibitory concentration, S. aureus ATCC 13709 + 50% Mouse Serum): 0.062 µg/mL
MIC (S. aureus ATCC 13709 [1]; read-out: Minimum inhibitory concentration, S. aureus ATCC 13709 + 50% Rat Serum): 0.062 µg/mL
MIC (S. aureus ATCC 13709 [2]; Staphylococcus aureus, ATCC13709, read-out: Minimum inhibitory concentration, S. aureus ATCC 13709): 0.016 µg/mL (≈ 0.0188 µM)
MIC ([3]; Staphylococcus aureus, read-out: Minimum inhibitory concentration, S. aureus ATCC 43300): 0.016 µg/mL (≈ 0.0188 µM)
MIC (S. aureus RN4220; Staphylococcus aureus, RN4220, read-out: Minimum inhibitory concentration, S. aureus RN4220): 0.016 µg/mL (≈ 0.0188 µM)
MIC ([4]; Staphylococcus aureus, read-out: Minimum inhibitory concentration, S. aureus BK85): 0.016 µg/mL (≈ 0.0188 µM)
Effect on bacterial titer in bone (in words) ([6]; 20 mg/kg sc once daily, 15th to 28th day after infection, FIG. 6): smaller but still statistically significant reduction
Effect on bacterial titer in bone (in words) [6, 8]: completely ineffective
MIC ([7]; Escherichia coli, read-out: Minimum inhibitory concentration, E. coli LBB925): 16 µg/mL (≈ 18.8 µM)

CO[C@H]1/C=C/O[C@@]2(C)Oc3c(C)c(O)c4c(=O)c(c5oc6cc(N7CCN(CCOC(=O)CCC(=O)NC(P(=O)(O)O)P(=O)(O)O)CC7)cc(O)c6nc-5c4c3C2=O)NC(=O)/C(C)=C\C=C\[C@H](C)[C@H](O)[C@@H](C)[C@@H](O)[C@@H](C)[C@H](OC(C)=O)[C@@H]1C.N.N [Compound 62]
Minimum inhibitory concentration, S. aureus ATCC 13709 + 50% Human Serum (S. aureus ATCC 13709 [1]): 0.032 µg/mL
Minimum inhibitory concentration, S. aureus ATCC 13709 + 50% Mouse Serum (S. aureus ATCC 13709 [1]): 0.032 µg/mL
Minimum inhibitory concentration, S. aureus ATCC 13709 + 50% Rat Serum (S. aureus ATCC 13709 [1]): 0.0156 µg/mL
Minimum inhibitory concentration, S. aureus ATCC 13709 (S. aureus ATCC 13709 [2]): 0.0039 µg/mL
Antibacterial activity (in words, summary of Table 1) (S. aureus ATCC 13709 [2]; summary over the strains of Table 1): very low MICs
Minimum inhibitory concentration, S. aureus ATCC 43300 [3]: 0.0078 µg/mL
Minimum inhibitory concentration, S. aureus RN4220 (S. aureus RN4220): 0.0078 µg/mL
Minimum inhibitory concentration, S. aureus BK85 [4]: 0.0078 µg/mL
Regeneration of parent drug once bound to bone (in words) [5]: appreciable rates of regeneration
% Conversion of bone-bound prodrug to parent drug ([5]; 50% Human Serum): 0.86%
% Conversion of bone-bound prodrug to parent drug ([5]; 50% Rat Serum): 0.91%
% Conversion of bone-bound prodrug to parent drug ([5]; PBS): 0.21%
Impact of the medium on the rate of regeneration of parent drug (in words) [5]: significant acceleration
Decrease in bacterial titer ([6]; prodrug iv at 20 mg/kg parent equivalent, q24hx4+q4 days, FIGS. 3, 4, 5): approximately 1 logarithmic order of magnitude
Effect on bacterial titer in bone infection versus the untreated control (figure legends) [6, 9]: small but statistically significant effect
Minimum inhibitory concentration, E. coli LBB925 [7]: >128 µg/mL
